Target: HEK293 cells with stable expression of the GRIN1 gene and tetracycline-inducible expression of the GRIN2B gene (NMDA receptor, NR2B) (Homo sapiens, UniProt Q13224)
Experiment: Fluo-8 Ca2+ flux assay: reversal of Ro 25-6981-mediated suppression of the Ca2+ response to co-agonist (glutamate/glycine); further: test concentration or dose not given here
Assay type: cell-based
Conditions: reversal of the Ro 25-6981 suppression of the Ca2+ response to co-agonist (glutamate/glycine)

Chain of HEK293 cells with stable expression of the GRIN1 gene and tetracycline-inducible expression of the GRIN2B gene (NMDA receptor, NR2B) (Q13224 27-1484, other chains not shown): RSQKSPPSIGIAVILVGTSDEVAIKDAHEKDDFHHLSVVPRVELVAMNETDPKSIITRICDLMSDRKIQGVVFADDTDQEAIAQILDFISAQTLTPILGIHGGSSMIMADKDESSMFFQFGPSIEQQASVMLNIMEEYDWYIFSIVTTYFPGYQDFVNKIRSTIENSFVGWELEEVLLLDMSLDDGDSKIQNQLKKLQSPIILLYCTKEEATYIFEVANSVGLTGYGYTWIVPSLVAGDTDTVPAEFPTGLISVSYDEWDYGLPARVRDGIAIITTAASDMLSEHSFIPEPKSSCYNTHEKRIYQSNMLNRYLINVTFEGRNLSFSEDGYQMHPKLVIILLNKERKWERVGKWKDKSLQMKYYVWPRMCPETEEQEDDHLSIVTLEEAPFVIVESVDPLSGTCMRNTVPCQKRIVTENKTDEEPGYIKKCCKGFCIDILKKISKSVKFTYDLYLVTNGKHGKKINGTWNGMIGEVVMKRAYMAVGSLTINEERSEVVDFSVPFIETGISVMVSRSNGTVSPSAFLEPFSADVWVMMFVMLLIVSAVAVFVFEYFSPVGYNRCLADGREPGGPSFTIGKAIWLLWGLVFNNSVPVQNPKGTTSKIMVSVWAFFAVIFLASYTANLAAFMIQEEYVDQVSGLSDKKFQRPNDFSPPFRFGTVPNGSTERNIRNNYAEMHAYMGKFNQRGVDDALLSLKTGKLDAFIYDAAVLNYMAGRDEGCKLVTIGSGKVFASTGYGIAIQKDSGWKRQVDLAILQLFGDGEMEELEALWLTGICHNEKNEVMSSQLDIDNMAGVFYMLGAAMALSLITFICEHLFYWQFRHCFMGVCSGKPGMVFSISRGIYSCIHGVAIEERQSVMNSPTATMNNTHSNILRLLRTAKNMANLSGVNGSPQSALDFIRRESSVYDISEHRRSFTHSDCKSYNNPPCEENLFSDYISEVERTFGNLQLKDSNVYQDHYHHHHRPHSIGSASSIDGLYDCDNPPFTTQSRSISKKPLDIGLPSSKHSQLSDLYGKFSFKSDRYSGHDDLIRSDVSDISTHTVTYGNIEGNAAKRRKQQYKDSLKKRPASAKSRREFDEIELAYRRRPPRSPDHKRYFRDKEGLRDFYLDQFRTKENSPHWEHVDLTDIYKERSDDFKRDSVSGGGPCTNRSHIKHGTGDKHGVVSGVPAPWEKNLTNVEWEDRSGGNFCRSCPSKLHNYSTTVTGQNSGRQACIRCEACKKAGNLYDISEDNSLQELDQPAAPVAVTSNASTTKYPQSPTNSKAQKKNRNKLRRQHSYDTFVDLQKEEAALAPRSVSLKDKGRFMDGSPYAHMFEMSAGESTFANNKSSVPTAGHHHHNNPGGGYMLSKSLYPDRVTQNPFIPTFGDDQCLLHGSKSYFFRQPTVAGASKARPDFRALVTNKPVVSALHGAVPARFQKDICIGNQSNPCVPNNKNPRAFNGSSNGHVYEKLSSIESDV

SMILES | Response Recovered (%)
O=C(Cn1ccc2scc(-c3ccc(F)c(Cl)c3)c2c1=O)N1CC2(COC2)C1 [Example 67, 3-(3-chloro-4-fluroophenyl)-5-(2-oxo-2-(2-oxa-6-azaspiro[3.3]heptan-6-yl)ethyl)thieno[3,2-c]pyridin-4(5H)-one] | 4.4%
O=C(Cn1cnc2[nH]cc(-c3ccc(Cl)cc3)c2c1=O)N1CC(F)(F)C1 [Example 154, 5-(4-chlorophenyl)-3-(2-(3,3-difluoroazetidin-1-yl)-2-oxoethyl)-3H-pyrrolo[2,3-d]pyrimidin-4(7H)-one] | 36%
O=C(Cn1ccc2ncc(-c3ccc(F)c(Cl)c3)n2c1=O)N1CCC(F)C1 (stereo not shown) [Example 451, 3-(3-chloro-4-fluorophenyl)-6-(2-(3-fluoropyrrolidin-1-yl)-2-oxoethyl)imidazo[1,2-c]pyrimidin-5(6H)-one] | 23%
CC1(F)CN(C(=O)Cn2ccc3c(c(-c4ccc(F)c(Cl)c4)cn3CC(F)(F)F)c2=O)C1 [Example 280, 3-(3-chloro-4-fluorophenyl)-5-(2-(3-fluoro-3-methylazetidin-1-yl)-2-oxoethyl)-1-(2,2,2-trifluoroethyl)-1H-pyrrolo[3,2-c]pyridin-4(5H)-one] | 73%
CCC1(F)CN(C(=O)Cn2ccn3ccc(-c4cnc(Cl)c(C)c4)c3c2=O)C1 [Example 410, 8-(6-chloro-5-methylpyridin-3-yl)-2-(2-(3-ethyl-3-fluoroazetidin-1-yl)-2-oxoethyl)pyrrolo[1,2-a]pyrazin-1(2H)-one] | 34%
O=C(Cn1ccn2ncc(-c3ccc(F)c(C(F)(F)F)c3)c2c1=O)N1CCCC1 [Example 323, 3-(4-fluoro-3-(trifluoromethyl)phenyl)-5-(2-oxo-2-(pyrrolidin-1-yl)ethyl)pyrazolo[1,5-a]pyrazin-4(5H)-one] | 40%
O=C(Cn1cc(CN2CCC2)c2scc(-c3ccc(Cl)c(Cl)c3)c2c1=O)N1CCC(F)C1 (stereo not shown) [Example 122, 7-(azetidin-1-ylmethyl)-3-(3,4-dichlorophenyl)-5-(2-(3-fluoropyrrolidin-1-yl)-2-oxoethyl)thieno[3,2-c]pyridin-4(5H)-one] | 27%
Cn1cnc(-n2cc(-c3ccc(F)c(C(F)(F)F)c3)c3c(=O)n(CC(=O)N4CCC(F)C4)ccc32)n1 (stereo not shown) [Example 266, 3-(4-fluoro-3-(trifluoromethyl)phenyl)-5-(2-(3-fluoropyrrolidin-1-yl)-2-oxoethyl)-1-(1-methyl-1H-1,2,4-triazol-3-yl)-1H-pyrrolo[3,2-c]pyridin-4(5H)-one] | 95%
O=C(Cn1cnc2[nH]nc(-c3ccc(Cl)c(F)c3)c2c1=O)N1CCCC1 [Example 319, 3-(4-chloro-3-fluorophenyl)-5-(2-oxo-2-(pyrrolidin-1-yl)ethyl)-1H-pyrazolo[3,4-d]pyrimidin-4(5H)-one] | 4%
O=C(Cn1cnc2csc(-c3ccc(F)c(Cl)c3)c2c1=O)N1CC(F)(F)C1 [Example 360, 5-(3-chloro-4-fluorophenyl)-3-(2-(3,3-difluoroazetidin-1-yl)-2-oxoethyl)thieno[3,4-d]pyrimidin-4(3H)-one] | 39%
O=C(Cn1cnc2csc(-c3ccc(C(F)(F)F)cc3)c2c1=O)N1CCCC1C(F)(F)F (stereo not shown) [Example 357, 3-(2-oxo-2-(2-(trifluoromethyl)pyrrolidin-1-yl)ethyl)-5-(4-(trifluoromethyl)phenyl)thieno[3,4-d]pyrimidin-4(3H)-one] | 2%
CCC1(F)CN(C(=O)Cn2ccc3scc(-c4ccc(F)c(C(F)(F)F)c4)c3c2=O)C1 [Example 51, 5-(2-(3-ethyl-3-fluoroazetidin-1-yl)-2-oxoethyl)-3-(4-fluoro-3-(trifluoromethyl)phen-yl)thieno[3,2-c]pyridin-4(5H)-one] | 57%
COC1(C)CN(C(=O)Cn2ccc3scc(-c4ccc(F)c(C(F)(F)F)c4)c3c2=O)C1 [Example 64, 3-(4-fluoro-3-(trifluoromethyl)phen-yl)-5-(2-(3-methoxy-3-methylazetidin-1-yl)-2-oxoethyl)thieno[3,2-c]pyridin-4(5H)-one] | 22%
O=C(Cn1ccc2[nH]cc(-c3ccc(F)c(C(F)(F)F)c3)c2c1=O)N1CCC(F)C1 (stereo not shown) [Example 215, 3-(4-fluoro-3-(trifluoromethyl)phenyl)-5-(2-(3-fluoropyrrolidin-1-yl)-2-oxoethyl)-1H-pyrrolo[3,2-c]pyridin-4(5H)-one] | 89%
O=C(Cn1ccc2[nH]cc(-c3ccc(F)c(Cl)c3)c2c1=O)N1CC(F)(F)C1 [Example 218, 3-(3-chloro-4-fluorophenyl)-5-(2-(3,3-difluoroazetidin-1-yl)-2-oxoethyl)-1H-pyrrolo[3,2-c]pyridin-4(5H)-one] | 71%
Cc1nc(-c2ccc(F)c(Cl)c2)c2c(=O)n(CC(=O)N3CC(C)(F)C3)ccn12 [Example 426, 1-(3-chloro-4-fluorophenyl)-7-(2-(3-fluoro-3-methylazetidin-1-yl)-2-oxoethyl)-3-methylimidazo[1,5-a]pyrazin-8(7H)-one] | 30%

SMILES | Response Recovered (%)
O=C(Cn1cc(-c2ccccc2)c2scc(-c3ccc(F)c(C(F)(F)F)c3)c2c1=O)N1CCCC1 [Example 104, 3-(4-fluoro-3-(trifluoromethyl)phenyl)-5-(2-oxo-2-(pyrrolidin-1-yl)ethyl)-7-phenylthieno[3,2-c]pyridin-4(5H)-one] | 22%
O=C(Cn1ccc2scc(-c3ccc(F)c(C(F)(F)F)c3)c2c1=O)N1CC2C(C1)C2(F)F (stereo not shown) [Example 72, 5-(2-(6,6-difluoro-3-azabicyclo[3.1.0]hex-an-3-yl)-2-oxoethyl)-3-(4-fluoro-3-(trifluoromethyl)phen-yl)thieno[3,2-c]pyridin-4(5H)-one] | 37%
O=C(Cn1cc(/C=N/O)c2scc(-c3ccc(F)c(C(F)(F)F)c3)c2c1=O)N1CCC(F)C1 (stereo not shown) [Example 134, (E)-3-(4-fluoro-3-(trifluoromethyl)phenyl)-5-(2-(3-fluoropyrrolidin-1-yl)-2-oxoethyl)-4-oxo-4,5-dihydrothieno[3,2-c]pyridine-7-carbaldehyde oxime] | 130%
O=C(Cn1ccc2c(c(-c3ccc(F)c(C(F)(F)F)c3)cn2-c2ccnnc2)c1=O)N1CCC(F)C1 (stereo not shown) [Example 262, 3-(4-fluoro-3-(trifluoromethyl)-phenyl)-5-(2-(3-fluoropyrrolidin-1-yl)-2-oxoethyl)-1-(pyridazin-4-yl)-1H-pyrrolo[3,2-c]pyridin-4(5H)-one] | 44%
O=C(Cn1ccc2[nH]cc(-c3cnc(Cl)c(Cl)c3)c2c1=O)N1CC(F)C(F)C1 (stereo not shown) [Example 210, 3-(5,6-dichloropyridin-3-yl)-5-(2-(3,4-difluoropyrrolidin-1-yl)-2-oxoethyl)-1H-pyrrolo[3,2-c]pyridin-4(5H)-one] | 26%
O=C(Cn1cc(N2CCC2)c2scc(-c3ccc(F)c(C(F)(F)F)c3)c2c1=O)N1CCC(F)C1 (stereo not shown) [Example 115, 7-(azetidin-1-yl)-3-[4-fluoro-3-(trifluoromethyl)phenyl]-5-[2-(3-fluoropyrrolidin-1-yl)-2-oxoethyl]-4H,5H-thieno[3,2-c]pyridin-4-one] | 8.3%
O=C(Cn1cnc2cccc(-c3ccc(Cl)cc3)c2c1=O)N1CCCC1F (stereo not shown) [Example 298, 5-(4-chlorophenyl)-3-(2-(2-fluoropyrrolidin-1-yl)-2-oxoethyl)quinazolin-4(3H)-one] | 9%
O=C(Cn1cnc2csc(-c3ccc(Cl)c(F)c3)c2c1=O)N1CCC(F)C1 (stereo not shown) [Example 364, 5-(4-chloro-3-fluorophenyl)-3-(2-(3-fluoropyrrolidin-1-yl)-2-oxoethyl)thieno[3,4-d]pyrimidin-4(3H)-one] | 35%
CC1(F)CN(C(=O)Cn2ccn3c(C4CC4)nc(-c4cnc(F)c(Cl)c4)c3c2=O)C1 [Example 441, 1-(5-chloro-6-fluoropyridin-3-yl)-3-cyclopropyl-7-(2-(3-fluoro-3-methylazetidin-1-yl)-2-oxoethyl)imidazo[1,5-a]pyrazin-8(7H)-one] | 46%
Cn1cc(-c2ccc(Cl)cc2)c2c(=O)n(CC(=O)N3CCCC3)cnc21 [Example 151, 5-(4-chlorophenyl)-7-methyl-3-(2-oxo-2-(pyrrolidin-1-yl)ethyl)-3H-pyrrolo[2,3-d]pyrimidin-4(7H)-one] | 17%
C[Si](C)(C)CCOCn1cc(-c2ccc(Cl)c(C(F)(F)F)c2)c2c(=O)n(CC(=O)N3CC(F)(F)C3)ccc21 [Example 200, 3-(4-chloro-3-(trifluoromethyl)phenyl)-5-(2-(3,3-difluoroazetidin-1-yl)-2-oxoethyl)-1-((2-(trimethylsilyl)ethoxy)methyl)-1H-pyrrolo[3,2-c]pyridin-4(5H)-one] | 18%
Cc1cn(CC(=O)N2CCC(F)C2)c(=O)c2c(-c3ccc(F)c(C(F)(F)F)c3)ccn12 (stereo not shown) [Example 411, 8-(4-fluoro-3-(trifluoromethyl)phenyl)-2-(2-(3-fluoropyrrolidin-1-yl)-2-oxoethyl)-4-methylpyrrolo[1,2-a]pyrazin-1(2H)-one] | 59%
CC1(F)CN(C(=O)Cn2ccn3cnc(-c4ccc(F)c(Cl)c4)c3c2=O)C1 [Example 445, 1-(3-chloro-4-fluorophenyl)-7-(2-(3-fluoro-3-methylazetidin-1-yl)-2-oxoethyl)imidazo[1,5-a]pyrazin-8(7H)-one] | 34%
O=C(Cn1cc(CN2CCCC2)c2scc(-c3ccc(F)c(C(F)(F)F)c3)c2c1=O)N1CCC(F)C1 (stereo not shown) [Example 112, 3-(4-fluoro-3-(trifluoromethyl)phenyl)-5-(2-(3-fluoropyrrolidin-1-yl)-2-oxoethyl)-7-(pyrrolidin-1-ylmethyl)thieno[3,2-c]pyridin-4(5H)-one] | 89%
O=C(Cn1ccc2c(c(-c3ccc(F)c(C(F)(F)F)c3)cn2-c2ccccc2)c1=O)N1CCC(F)C1 (stereo not shown) [Example 230, 3-(4-fluoro-3-(trifluoromethyl)phenyl)-5-(2-(3-fluoropyrrolidin-1-yl)-2-oxoethyl)-1-phenyl-1H-pyrrolo[3,2-c]pyridin-4(5H)-one] | 109%

From patent US12162890B2 (Novartis AG, priority 2015, dated 2024)
